Results from US20040258754A1, “Compositions for oral administration of camptothecin and its analogs” (priority 2003, published 2004).
Values after ≈ are worked out from the molar mass of the structure shown. Where two headings read alike, the source gives them in different places. One block for each compound: values may come before it.

Key:
[1] = for Relative Peak Area: 37° C.
[2] = Loading (uptake) of drugs into Pluronic-PAA microgels; type: physicochemical; settings: 1 wt % microgel suspension pH 7.0
Experimental: The beads were used in order to enhance the area of contact between the microgel suspension and drug. The beads were separated into several fractions. One fraction was added to a polypropylene vial containing the microgel suspension (0.5 mL) and the vial was gently shaken in a horizontal position in an environmental chamber at 20 or 37° C. Then the beads were recovered from the suspension by using a magnet. The beads were dried under vacuum and placed into an appropriate solvent (0.5 mL), where the solute was extracted after shaking overnight. The solvent fraction was assayed for the solute concentration using HPLC. The control fraction of loaded beads was subjected to the extraction without equilibration with the microgel suspension. The solute concentrations were measured in triplicate using the HPLC system described above. […] The peak area was integrated and used to calculate camptothecin concentration using standard calibration curves.

[3] = Solubility of camptothecin in formulations with Pluronic P85; type: physicochemical; settings: aqueous with cosolvent or surfactant or cyclodextrin, thermodynamic from solid, read-out: Camptothecin concentration (solubility)
Experimental: Calibration. Fluorescence of 0.300 mL samples of camptothecin solutions in methanol containing between 0.00003 and 0.0005 mg/mL, in triplicates on Helma Quarz plate, was measured using Bio-Tek FL600 fluorescence plate reader with excitation filter wavelength/bandwidth 360/40 nm and emission filter 530/25 nm, sensitivity 70. The average fluorescence was fitted to a linear equation and gave: […]
where C—camptothecin concentration [mg/mL].
Solubility. 0.1 mg camptothecin samples, in triplicates, and 1 mL of the respective buffer or carrier solution, were incubated at room temperature with shaking for 1 hour. The samples were then filtered through Acrodisc CR, PTFE Syringe filter, 4 mm diameter, 0.45 μm pore size Gelman part No. 4472. The filtrate was diluted 100 times with methanol, and the final concentration of camptothecin was determined by fluorescence measurement using the above-described calibration.

[4] = biological target: human serum albumin (HSA) (Homo sapiens, UniProt P02768); settings: pH 7.4; cited from earlier work
Chain of human serum albumin (HSA) (P02768 25-609): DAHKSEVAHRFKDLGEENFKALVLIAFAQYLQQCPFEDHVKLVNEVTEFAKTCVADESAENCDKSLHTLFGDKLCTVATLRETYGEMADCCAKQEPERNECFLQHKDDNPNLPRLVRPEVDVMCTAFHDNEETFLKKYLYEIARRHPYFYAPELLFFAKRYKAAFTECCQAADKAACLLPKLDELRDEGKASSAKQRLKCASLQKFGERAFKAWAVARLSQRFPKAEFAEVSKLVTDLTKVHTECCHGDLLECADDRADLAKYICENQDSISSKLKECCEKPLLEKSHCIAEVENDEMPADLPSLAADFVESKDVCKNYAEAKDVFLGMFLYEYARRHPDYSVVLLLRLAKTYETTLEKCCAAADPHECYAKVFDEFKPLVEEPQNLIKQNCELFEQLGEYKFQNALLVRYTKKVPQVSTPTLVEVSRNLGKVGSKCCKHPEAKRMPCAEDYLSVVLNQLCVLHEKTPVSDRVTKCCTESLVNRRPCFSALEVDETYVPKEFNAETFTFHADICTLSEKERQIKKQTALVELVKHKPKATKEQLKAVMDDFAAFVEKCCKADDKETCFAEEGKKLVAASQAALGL

[5] = cited from earlier work
[6] = CPT-11 in human serum Without Gel, exposure 10 min
[7] = CPT-11 loaded in Pluronic-PAA-EGDMA gel (F127-PAA) in human serum, exposure 1 h

SMILES: CCc1c2c(nc3ccc(OC(=O)N4CCC(NCCCCC(=O)O)CC4)cc13)-c1cc3c(c(=O)n1C2)COC(=O)[C@]3(O)CC [APC-L]
- Relative Peak Area [1, 6]: 0.778
- Relative Peak Area [1, 7]: not detected

SMILES: CCc1c2c(nc3ccc(OC(=O)N4CCC(N5CCCCC5)CC4)cc13)-c1cc3c(c(=O)n1C2)COC(=O)[C@]3(O)CC [CPT-11, irinotecan]
- metabolism in human serum without encapsulation into gels ([1]; male, human, 15 min, 0.013 mg/mL): a substantial portion of CPT-11 was metabolised

SMILES: CC[C@@]1(O)C(=O)OCc2c1cc1n(c2=O)Cc2cc3ccccc3nc2-1 [Camptothecin]
- Uptake ± S.D. ([2]; F127-based gel, 20° C.): 13.4 ± 1.54 (20° C.) μmol/g gel
- Uptake ± S.D. ([2]; F127-based gel, 37° C.): 16.3 ± 1.86 (37° C.) μmol/g gel
- Uptake ± S.D. ([2]; L92-based gel, 20° C.): 16.2 ± 1.87 (20° C.) μmol/g gel
- Uptake ± S.D. ([2]; L92-based gel, 37° C.): 19.5 ± 2.33 (37° C.) μmol/g gel
- solubility at 1 h ([3]; 1% Pluronic P85 in PBS, P85 1% in PBS pH 7.2, room temperature): 3.1 ± 1.5 µg/mL (≈ 8.9 µM)
- solubility at 1 h ([3]; 3% Pluronic P85 in PBS, P85 3% in PBS pH 7.2, room temperature): 4.9 ± 1.5 µg/mL (≈ 14.1 µM)
- higher affinity of HSA for the carboxylate form than for the alpha-hydroxy lactone form [4]: 150 fold
- Log P [5]: 0.87

- Relative Peak Area [1, 6]: 1.30
- Relative Peak Area [1, 7]: not detected
SMILES: CCc1c2c(nc3ccc(O)cc13)-c1cc3c(c(=O)n1C2)COC(=O)[C@]3(O)CC [SN28-L]

SMILES: CCc1c2c(nc3ccc(O)cc13)-c1cc(C(O)(CC)C(=O)O)c(CO)c(=O)n1C2 (centres unmarked) [SN28-c]
- Relative Peak Area [1, 6]: 1.18
- Relative Peak Area [1, 7]: not detected

- Uptake ± S.D. ([2]; F127-based gel, 20° C.): 2.27 ± 0.90 (20° C.) μmol/g gel
- Uptake ± S.D. ([2]; F127-based gel, 37° C.): 6.97 ± 0.87 (37° C.) μmol/g gel
- Uptake ± S.D. ([2]; L92-based gel, 20° C.): 3.65 ± 0.43 (20° C.) μmol/g gel
- Uptake ± S.D. ([2]; L92-based gel, 37° C.): 7.25 ± 0.74 (37° C.) μmol/g gel
SMILES: CC(=O)O[C@H]1C(=O)[C@@]2(C)[C@H]([C@H](OC(=O)c3ccccc3)[C@]3(O)C[C@H](OC(=O)[C@H](O)[C@@H](NC(=O)c4ccccc4)c4ccccc4)C(C)=C1C3(C)C)[C@]1(OC(C)=O)CO[C@@H]1C[C@@H]2O [Taxol]

SMILES: C[C@]12CC[C@@H]3c4ccc(O)cc4CC[C@H]3[C@@H]1CC[C@@H]2O [β-Estradiol]
- Log P [5]: 3.86
